One assay has as its target T1, human CYP2J2 (Homo sapiens, UniProt P51589).
T1 sequence (P51589 1-502): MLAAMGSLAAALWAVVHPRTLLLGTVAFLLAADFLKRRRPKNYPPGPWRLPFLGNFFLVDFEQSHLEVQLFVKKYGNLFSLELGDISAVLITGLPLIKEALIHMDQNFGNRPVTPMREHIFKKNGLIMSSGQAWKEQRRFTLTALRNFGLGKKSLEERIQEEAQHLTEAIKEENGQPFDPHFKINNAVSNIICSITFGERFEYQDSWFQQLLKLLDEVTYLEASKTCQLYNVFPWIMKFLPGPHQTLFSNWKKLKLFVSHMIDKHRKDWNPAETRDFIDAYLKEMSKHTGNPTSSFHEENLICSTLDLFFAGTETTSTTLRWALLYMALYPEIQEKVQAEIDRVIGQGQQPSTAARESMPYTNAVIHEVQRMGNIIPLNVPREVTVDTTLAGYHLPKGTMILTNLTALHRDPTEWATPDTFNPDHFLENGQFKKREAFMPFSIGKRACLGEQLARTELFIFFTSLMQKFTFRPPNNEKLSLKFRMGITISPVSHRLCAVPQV
In words: P450 spectral binding titration.

Assay [1] deals with T2, Fatty Acid Amide Hydrolase (FAAH) (Homo sapiens, UniProt O00519).
T2 sequence (O00519 1-579): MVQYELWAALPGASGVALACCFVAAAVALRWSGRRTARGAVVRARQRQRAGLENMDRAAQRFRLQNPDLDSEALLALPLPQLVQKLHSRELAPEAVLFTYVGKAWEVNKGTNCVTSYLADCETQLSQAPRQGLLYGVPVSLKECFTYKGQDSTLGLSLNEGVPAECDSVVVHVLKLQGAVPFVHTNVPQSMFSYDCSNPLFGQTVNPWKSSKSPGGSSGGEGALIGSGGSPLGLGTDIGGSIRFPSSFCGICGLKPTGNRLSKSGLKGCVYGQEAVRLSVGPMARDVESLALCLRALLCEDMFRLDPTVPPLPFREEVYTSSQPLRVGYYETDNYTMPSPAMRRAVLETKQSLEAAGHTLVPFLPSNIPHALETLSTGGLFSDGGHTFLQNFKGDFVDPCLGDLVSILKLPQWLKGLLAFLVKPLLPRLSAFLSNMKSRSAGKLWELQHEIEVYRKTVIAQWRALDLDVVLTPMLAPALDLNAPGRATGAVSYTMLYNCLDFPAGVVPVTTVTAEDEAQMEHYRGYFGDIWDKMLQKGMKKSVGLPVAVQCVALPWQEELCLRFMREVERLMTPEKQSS
In words: fluorescence assay of AMC release from anandamide-AMC, 4-parameter logistic fit. It counts as biochemical.

The target in the next assay is CYP3A4 (Homo sapiens, UniProt P08684). The experiment in a line: P450 spectral binding titration.
CYP3A4, sequence (P08684 2-503): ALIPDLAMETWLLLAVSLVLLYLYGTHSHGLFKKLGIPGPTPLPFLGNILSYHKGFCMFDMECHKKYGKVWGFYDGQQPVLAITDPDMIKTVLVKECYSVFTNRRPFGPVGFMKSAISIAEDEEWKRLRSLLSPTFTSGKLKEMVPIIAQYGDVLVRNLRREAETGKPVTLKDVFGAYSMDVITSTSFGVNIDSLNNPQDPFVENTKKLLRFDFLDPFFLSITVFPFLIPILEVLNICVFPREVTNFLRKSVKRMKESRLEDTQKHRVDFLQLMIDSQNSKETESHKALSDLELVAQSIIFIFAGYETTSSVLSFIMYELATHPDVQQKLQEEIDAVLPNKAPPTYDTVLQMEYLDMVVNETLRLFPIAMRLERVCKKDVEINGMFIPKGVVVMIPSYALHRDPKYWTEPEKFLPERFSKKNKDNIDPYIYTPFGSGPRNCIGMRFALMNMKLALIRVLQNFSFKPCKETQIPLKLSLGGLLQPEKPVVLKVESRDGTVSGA

In the case of `CC/C=C\C/C=C\C/C=C\C/C=C\C/C=C\C/C=C\CCC(=O)NCC(=O)O` [DHA-Gly], the figures for the dissociation constant Kd on human CYP2J2 and on CYP3A4 were 2.47 ± 0.26 µM and 20.3 ± 6.13 µM, respectively. In addition, in assay [1], the IC50 (usually the point on the concentration scale where inhibition reaches its midpoint) was 35.3 ± 1.82 µM.

As for `CCCCC/C=C\C/C=C\C/C=C\C/C=C\CCCC(=O)NCC(=O)O` [NA-Gly], at human CYP2J2, binding was characterised by a dissociation constant (Kd) of 3.3 ± 0.31 µM. The molecule also came in with a half-inhibitory concentration (IC50) in assay [1] of 14.2 ± 1.07 µM.

For the origin of these results see publication doi:10.1101/2025.10.17.681057v1 (biorxiv, 2025).
